This is an account of results in patent US10954215B2, “Compounds as modulators of ROR gamma” (Boehringer Ingelheim International GmbH, priority 2016, dated 2021).

For the assay, the target named is T1, RORγ (Homo sapiens, UniProt P51449).
T1 construct: expressed in transfected cells; host or cells: HEK 293 cells, transiently transfected
T1 sequence (P51449 269-508 limits assumed): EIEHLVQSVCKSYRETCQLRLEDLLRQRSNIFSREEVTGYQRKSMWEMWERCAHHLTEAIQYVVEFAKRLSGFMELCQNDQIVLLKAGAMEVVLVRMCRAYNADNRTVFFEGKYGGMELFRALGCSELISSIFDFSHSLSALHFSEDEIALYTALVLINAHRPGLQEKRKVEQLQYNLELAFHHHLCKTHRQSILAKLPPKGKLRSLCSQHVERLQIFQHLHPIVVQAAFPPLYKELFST
Kind of assay: Reporter Gene Assay (RGA): inhibition of RORγ transactivation of a luciferase reporter in transiently transfected HEK 293 cells. Type of assay: cell-based. Particulars: HEK 293 cells cotransfected with pGL4.3 luc2P/GAL4UAS and pBIND Gal4DBD hRORC LBD; 20-24 h incubation; luciferase luminescence. The method, then: Reporter Gene Assay (RGA)
A nuclear receptor transactivation assay is performed to quantitate the ability of test compounds to inhibit RORγ transactivation of a luciferase reporter. A similar assay is described in: Khan et al., Bioorganic & Medicinal Chemistry Letters 23 (2013), 532-536. The system uses transiently transfected HEK 293 cells cotransfected with two plasmids (pGL4.3, luc2P/GAL4UAS/Hygro, and pBIND, Gal4DBD hRORC LBD1-3). The positive control is co-transiently transfected with both plasmids, and the negative control contains the pGL4.3 promoter sequence. Assays are assembled in 384 well plates where transiently transfected cells and test compound at varying concentrations are incubated for 20-24 h. The next day, assays plates are taken out and equilibrated at RT for 20-30 minutes. Bright-Glo™ Luciferase Assay System is used to detect Luciferase production. After addition of Bright GLO detection reagent, the plates are incubated at RT for 20 minutes. The plates are read on an Envision plate reader to measure luminescence signal. The RLU signal is converted to POC relative to control and blank wells.
Compound dilution buffer:
Bright Glo Luciferase Assay System: Promega #E2620
Thaw lysis buffer provided in kit, add 100 mL lysis buffer to substrate powder.
(In general: Reporter assays use an easily measured gene product as a stand-in for the process of interest.)
The compound `CCS(=O)(=O)c1ccc(CNC(=O)N2CC(c3ccccc3)C(c3nn(C(C)C)nc3C3CC3)C2)cc1` (centres unmarked) [Example 19] came in with an IC50 of 4100 nM.
Consider `CCS(=O)(=O)c1cnc(CNC(=O)N2CC(c3ccccc3)C(c3cc(C4CC4)nn3C(C)C)C2)nc1` (centres unmarked) [Example 24], for which the IC50 stood at 13000 nM.
`CCS(=O)(=O)c1ccc(CNC(=O)N2CC(c3ccccc3)C(c3cc(C4CC4)nn3C(C)C)C2)nc1` (centres unmarked) [Example 18] registered an IC50 of 2500 nM.
As to `CNS(=O)(=O)c1ccc(CNC(=O)N2CC(c3ccccc3)C(c3cn(C(C)C)nc3C(C)(C)C)C2)cc1` (centres unmarked) [Example 39], the midpoint of inhibition, the IC50, lay at 965 nM.
`CCS(=O)(=O)c1ccc(CNC(=O)N2CC(c3cccc(C4CC4)n3)C(c3cn(C(C)C)nc3C(C)(C)C)C2)cc1` (centres unmarked) [Example 57] came in with an IC50 of 1050 nM.
For `CCS(=O)(=O)c1ccc(CNC(=O)N2CC(c3ccccc3)C(c3nc(C4CC4)nn3C(C)C)C2)cc1` (centres unmarked) [Example 22], the IC50 was determined as 8700 nM.
`CCS(=O)(=O)c1ccc(CNC(=O)N2CC(c3ccccc3)C(c3cn(C4CC4)nc3C(C)(C)C)C2)cc1` (centres unmarked) [Example 33] showed an IC50 of 510 nM.
As for `CCS(=O)(=O)c1ccc(CNC(=O)N2CC(c3ccccc3)C(c3cn(C(C)C)nc3C(C)(C)C)C2)cc1` (centres unmarked) [Example 37], 440 nM corresponded to half-maximal inhibition (IC50).
Turning to `CCS(=O)(=O)c1ccc(CNC(=O)N2CC(c3cccc(Cl)c3)C(c3nc(C4CC4)nn3C(C)C)C2)nc1` (centres unmarked) [Example 49], the IC50 was 1750 nM.
With `CCS(=O)(=O)c1ccc(CNC(=O)N2CC(c3ccccc3)C(c3ncccc3C3CC3)C2)cc1` (centres unmarked) [Example 5], 2800 nM corresponded to half-maximal inhibition (IC50). This IC50 is about 1.6-fold higher than that of the compound before.
In turn, `CCS(=O)(=O)c1ccc(CNC(=O)N2CC(C(C)C)C3(C2)Oc2c(C(C)C)ccc(C)c2C3=O)cc1` (centres unmarked) [Example 10] had an IC50 of 275 nM.
With `CCS(=O)(=O)c1ccc(CNC(=O)N2CC(c3ccccc3)C(c3cc(C(C)(C)C)nn3C(C)C)C2)nc1` (centres unmarked) [Example 41] the figure was 1450 nM; with `CCS(=O)(=O)c1ccc(CNC(=O)N2CC(c3ccccc3)C(c3cccc(OC(F)(F)F)c3)C2)nc1` (centres unmarked) [Example 30], 5200 nM.
In turn, `CCS(=O)(=O)c1ccc(CNC(=O)N2CC(c3cccc(Cl)c3)C(c3ccccc3C(F)(F)F)C2)nc1` (centres unmarked) [Example 47] showed an IC50 of 1400 nM.
With `CCS(=O)(=O)c1ccc(CNC(=O)N2C[C@@H](c3ccccc3)[C@H](c3cc(C4CC4)nn3C(C)C)C2)cc1` [Example 16C] the figure was 1250 nM; with `CNS(=O)(=O)c1ccc(CNC(=O)N2CC(c3ccccc3)C(c3cn(C4CC4)nc3C(C)(C)C)C2)cc1` (centres unmarked) [Example 34], 1300 nM.
Turning to `CCS(=O)(=O)c1ccc(CNC(=O)N2CC(c3cccc(Cl)c3)C(c3cc(C4CC4)nn3C(C)C)C2)cc1` (centres unmarked) [Example 48], the half-maximal inhibitory concentration (IC50) came out at 775 nM.
Take `CCS(=O)(=O)c1ccc(CNC(=O)N2CC(c3ccccc3)C(c3nc(C4CC4)nn3C(C)(C)C)C2)cc1` (centres unmarked) [Example 36]: inhibition was half-maximal at 2600 nM (IC50).
With `CCS(=O)(=O)c1ccc(CNC(=O)N2CC(c3ccccc3)C(c3nn(C(C)C)nc3C3CC3)C2)nc1` (centres unmarked) [Example 23] the figure was 6200 nM; with `CCS(=O)(=O)c1ccc(CNC(=O)N2CC(c3ccccc3)C(c3csc4ccccc34)C2)cc1` (centres unmarked) [Example 7], 1020 nM; with `CCS(=O)(=O)c1ccc(CNC(=O)N2CC(c3ccccc3)C(c3cn(C)nc3C(C)(C)C)C2)cc1` (centres unmarked) [Example 9], 1550 nM.
The value for `CCS(=O)(=O)c1ccc(CNC(=O)N2CC(C(C)C)C3(C2)Oc2c(C(C)C)ccc(C)c2C3=O)nc1` (centres unmarked) [Example 11] was 620 nM; that for `CCS(=O)(=O)c1ccc(CNC(=O)N2CC(c3ccccc3)C(c3cn(C(C)C)nc3C(C)(C)C)C2)nc1` (centres unmarked) [Example 40] was 1300 nM; that for `CCS(=O)(=O)c1cnc(CNC(=O)N2CC(c3cccc(C4CC4)n3)C(c3cc(C4CC4)nn3C(C)C)C2)nc1` (centres unmarked) [Example 54] was 5200 nM.
For the compound `CCS(=O)(=O)c1ccc(CNC(=O)N2CC(c3ccccc3)C(c3cc(C(C)(C)C)nn3C(C)C)C2)cc1` (centres unmarked) [Example 38], the IC50 turned out to be 780 nM.
The compound `CCS(=O)(=O)c1ccc(CNC(=O)N2CC(c3ccccc3)C(c3cc(C)nn3C3CCCC3)C2)cc1` (centres unmarked) [Example 15] came in with an IC50 of 565 nM.
With `CCS(=O)(=O)c1ccc(CNC(=O)N2CC(c3cccc(Cl)c3)C(c3nc(C4CC4)cs3)C2)cc1` (centres unmarked) [Example 25] the figure was 4900 nM.
`CCS(=O)(=O)c1ccc(CNC(=O)N2CC(c3ccccc3)C(c3cc(C(F)(F)F)cn(C(C)C)c3=O)C2)cc1` (centres unmarked) [Example 55] displayed an IC50 of 1500 nM.
`CCS(=O)(=O)c1ccc(CNC(=O)N2CC(c3cccc(C4CC4)n3)C(c3cn(C4CC4)nc3C(C)(C)C)C2)cc1` (centres unmarked) [Example 56]: the half-maximal inhibitory concentration (IC50) was determined as 865 nM.
In turn, `CCS(=O)(=O)c1ccc(CNC(=O)N2CC(c3cc(C)cc(C)n3)C(c3cc(C4CC4)nn3C(C)C)C2)nc1` (centres unmarked) [Example 46] yielded an IC50 of 3200 nM.
With `CCS(=O)(=O)c1ccc(CNC(=O)N2CC(c3ccccc3)C(c3cc(C)nn3C)C2)cc1` (centres unmarked) [Example 4] the figure was 3900 nM.
In the case of `CCS(=O)(=O)c1ccc(CNC(=O)N2CC(c3ccccc3)C(c3ccccc3OC(F)(F)F)C2)cc1` (centres unmarked) [Example 26], the IC50 was determined as 850 nM. This IC50 lies about 4.6-fold lower than the previous one.
With `CCS(=O)(=O)c1ccc(CNC(=O)N2CC(c3ccccc3)C(c3cc(C4CC4)nn3CC3CC3)C2)cc1` (centres unmarked) [Example 28], 1060 nM corresponded to half-maximal inhibition (IC50). This IC50 and that of the compound before are within 1.5-fold of each other.
`CCS(=O)(=O)c1ccc(CNC(=O)N2CC(c3ccccc3)C3(C2)Oc2c(C(C)C)ccc(C)c2C3=O)nc1` (centres unmarked) [Example 45]: the half-maximal inhibitory concentration (IC50) turned out to be 260 nM.
In turn, `CCS(=O)(=O)c1ccc(CNC(=O)N2CC(c3cccc(Cl)c3)C(c3nc(C(C)C)no3)C2)cc1` (centres unmarked) [Example 13] displayed an IC50 of 19000 nM. This IC50 lies about 73-fold higher than the previous one.
`CCS(=O)(=O)c1ccc(CNC(=O)N2CC(c3ccccc3)C(c3cc(C4CC4)nn3C(C)C)C2)cc1` (centres unmarked) [Example 16A] had an IC50 of 625 nM.
The compound `CCS(=O)(=O)c1ccc(CNC(=O)N2CC(c3ccccc3)C(c3nc(C(C)C)nn3C(C)(C)C)C2)cc1` (centres unmarked) [Example 42] came in with an IC50 of 1950 nM.
The compound `CCS(=O)(=O)c1ccc(CNC(=O)N2CC(c3ccccc3)C(c3ccccc3OC(F)(F)F)C2)nc1` (centres unmarked) [Example 29] had an IC50 of 830 nM.
The value for `CCS(=O)(=O)c1ccc(CNC(=O)N2CC(c3ccccc3)C(c3cc(C4CC4)nn3C)C2)cc1` (centres unmarked) [Example 6] was 2600 nM; that for `CCS(=O)(=O)c1ccc(CNC(=O)N2CC(c3ccccc3)C(c3ccccc3)C2)cc1` (centres unmarked) [Example 1] was 2400 nM; that for `CCS(=O)(=O)c1ccc(CNC(=O)N2CC(c3cccc(Cl)c3)C(c3cccc4cnccc34)C2)cc1` (centres unmarked) [Example 32] was 1200 nM.
`CCS(=O)(=O)c1ccc(CNC(=O)N2CC(c3ccccc3)C(c3cn(C4CC4)nc3C(C)(C)C)C2)nc1` (centres unmarked) [Example 35] displayed a half-inhibitory concentration (IC50) of 1900 nM. This IC50 is about 1.6-fold higher than that of the compound before.
`CCS(=O)(=O)c1ccc(CNC(=O)N2CC(c3ccccc3)C(c3cccc(OC(F)(F)F)c3)C2)cc1` (centres unmarked) [Example 27] displayed an IC50 of 2400 nM.
In turn, `CCS(=O)(=O)c1ccc(CNC(=O)N2CC(c3ccccc3)C(c3ccccc3)C2)cn1` (centres unmarked) [Example 3] displayed a concentration for half-maximal inhibition (IC50) of 7900 nM. This IC50 is about 3.3-fold higher than that of the compound before.
With `CCS(=O)(=O)c1ccc(CNC(=O)N2CC(c3cccc(C4CC4)n3)C(c3cc(C4CC4)nn3C(C)C)C2)nc1` (centres unmarked) [Example 53] the figure was 1550 nM.
In turn, `CCn1nc(C2CC2)cc1C1CN(C(=O)NCc2ccc(S(=O)(=O)CC)cc2)CC1c1ccccc1` (centres unmarked) [Example 8] returned a half-inhibitory concentration (IC50) of 1750 nM.
In the case of `CCS(=O)(=O)c1ccc(CNC(=O)N2CC(c3ccccc3)C(c3cc(C4CC4)nn3CC3CC3)C2)nc1` (centres unmarked) [Example 31], the IC50 is 2200 nM.
Turning to `CCS(=O)(=O)c1ccc(CNC(=O)N2CC(c3ccccc3)C(c3ccccc3)C2)nc1` (centres unmarked) [Example 2], inhibition was half-maximal at 5000 nM (IC50).
Compound `CCS(=O)(=O)c1ccc(CNC(=O)N2CC(c3ccccc3)C(c3ccnn3-c3ccccc3)C2)cc1` (centres unmarked) [Example 12] came in with an IC50 of 2100 nM.
With `CCS(=O)(=O)c1ccc(CNC(=O)N2CC(c3ccccc3)C(c3nc(C(C)C)nn3C3CC3)C2)cc1` (centres unmarked) [Example 21] the figure was 7400 nM; with `CCS(=O)(=O)c1ccc(CNC(=O)N2CC(c3ccccc3)C(c3cc(C(F)(F)F)cnc3OC)C2)cc1` (centres unmarked) [Example 44], 1150 nM; with `CCS(=O)(=O)c1ccc(CNC(=O)N2C[C@H](c3ccccc3)[C@@H](c3cc(C4CC4)nn3C(C)C)C2)cc1` [Example 16B], 925 nM.
`CCS(=O)(=O)c1ccc(CNC(=O)N2CC(c3ccccc3)C3(C2)Oc2c(C(C)C)ccc(C)c2C3=O)cc1` (centres unmarked) [Example 43] yielded an IC50 of 149 nM.
Compound `CCS(=O)(=O)c1ccc(CNC(=O)N2CC(c3ccccc3)C(c3ncccc3C(F)(F)F)C2)cc1` (centres unmarked) [Example 14] showed an IC50 of 1000 nM.
For the compound `CNS(=O)(=O)c1ccc(CNC(=O)N2CC(c3ccccc3)C(c3cc(C4CC4)nn3C(C)C)C2)cc1` (centres unmarked) [Example 17], the IC50 came to 2300 nM.
Compound `CCS(=O)(=O)c1ccc(CNC(=O)N2CC(c3ccccc3)C(c3cc(C4CC4)nn3C(C)C)C2)cn1` (centres unmarked) [Example 20] displayed an IC50 of 5500 nM.

Broadly, the IC50 is the point on the concentration scale where inhibition reaches its midpoint. Higher therefore signals weaker potency in that assay.
